Reference: publication PMC8859982 (Journal of medicinal chemistry, 2018)
≈ marks a conversion by molar mass, not a printed value. Read-outs that look alike come from different tables or passages of the source.

Tests used:
[1] = pH 7.4; cited from earlier work
DHODH = DHODH (Homo sapiens, UniProt Q02127); experiment: DHODH inhibition assay; assay type: biochemical; details: for LipE: lipophilic ligand efficiency from DHODH pIC50 (M) and cLogP
Thermodynamic solubility = assay type: physicochemical; details: for solubility thermodynamic: PBS, pH 7.4, Thermodynamic solubility, PBS pH 7.4, CLND, each entry a single run
[2] = clinical trial, cited from earlier work
[3] = Pharmacokinetic study in female CD-1 mice; assay type: in vivo
HCT-116 = details: HCT-116, comparator brequinar
MIA PaCa-2 = details: MIA PaCa-2, comparator brequinar

Sequence of DHODH (Q02127 whole entry): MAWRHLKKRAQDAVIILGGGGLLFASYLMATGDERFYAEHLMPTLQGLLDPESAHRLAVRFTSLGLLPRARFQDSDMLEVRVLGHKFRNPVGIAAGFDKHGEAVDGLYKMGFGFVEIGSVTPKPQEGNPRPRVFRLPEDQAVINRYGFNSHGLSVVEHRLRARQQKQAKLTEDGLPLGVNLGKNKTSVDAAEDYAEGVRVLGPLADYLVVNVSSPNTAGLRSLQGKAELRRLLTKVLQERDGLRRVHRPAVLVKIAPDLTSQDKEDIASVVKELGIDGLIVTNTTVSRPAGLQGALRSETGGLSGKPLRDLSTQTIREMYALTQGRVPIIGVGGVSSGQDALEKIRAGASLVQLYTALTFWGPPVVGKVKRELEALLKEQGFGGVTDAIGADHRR

Structure (SMILES): Cc1c(-c2ccc(-c3ccccc3F)cc2)nc2ccc(F)cc2c1C(=O)O [Brequinar sodium]
- water solubility [1]: < 100 µg/mL

Structure (SMILES): Cc1c(-c2ccc(-c3ccccc3F)cc2)nc2ccc(F)cc2c1C(=O)O [compound 1, brequinar]
- LipE (DHODH): 2.20
- solubility thermodynamic (Thermodynamic solubility): 407 µg/mL (≈ 1090 µM)
- CL ([2]; IV 8 mg/m^2): 3.2 L/h/m^2
- Cmax ([2]; IV 8 mg/m^2): 1800 ng/mL
- Vss ([2]; IV 8 mg/m^2): 8.2 L/m^2
- t1/2 ([2]; IV 8 mg/m^2): 2.9 h
- CL ([2]; IV 16 mg/m^2): 4.9 L/h/m^2
- Cmax ([2]; IV 16 mg/m^2): 2700 ng/mL
- Vss ([2]; IV 16 mg/m^2): 11.6 L/m^2
- t1/2 ([2]; IV 16 mg/m^2): 3.1 h
- Vss ([2]; IV 36 mg/m^2): 7.48 L/m^2

Structure (SMILES): O=C(O)c1cc(-c2ccc(C3CCCCC3)cc2)nc2ccccc12 [compound 3, 2-(4-Cyclohexylphenyl)quinoline-4-carboxylic Acid]
- solubility thermodynamic (Thermodynamic solubility): 14.5 µg/mL (≈ 43.8 µM)

Structure (SMILES): O=C(O)c1cc(-c2ccc(-c3cccnc3F)cc2)nc2ccccc12 [compound 28, 2-(4-(2-Fluoropyridin-3-yl)phenyl)quinoline-4-carboxylic Acid]
- fold less potent than 22 (DHODH) (DHODH; comparator 22): 9 fold
- fold less potent than 26 (DHODH) (DHODH; comparator 26): 64 fold
- LipE (DHODH): 1.45

Structure (SMILES): Cc1c(-c2ccc(-c3cccnc3Cl)cc2)nc2ccc(F)cc2c1C(=O)O [compound 41, 2-(4-(2-Chloropyridin-3-yl)phenyl)-6-fluoro-3-methylquinoline-4-carboxylic Acid]
- half-life ([3]; female, CD-1, mouse, plasma, intravenous, oral): 2.73 to 2.78 h
- CL-F ([3]; mice, PO 20 mg/kg): 9.25 mL/min/kg
- Vz_F ([3]; mice, PO 20 mg/kg): 2.226 L/kg
- solubility thermodynamic (Thermodynamic solubility): 393 µg/mL (≈ 1000 µM)

Structure (SMILES): Cc1c(-c2ccc(-c3ccccc3)cc2)nc2ncccc2c1C(=O)O [compound 45, 2-([1,1′-Biphenyl]-4-yl)-3-methyl-1,8-naphthyridine-4-carboxylic Acid]
- LipE (DHODH): 1.75

Structure (SMILES): Cc1c(-c2ccc(-c3ccccc3)cc2)nc2cnccc2c1C(=O)O [compound 46, 2-([1,1′-Biphenyl]-4-yl)-3-methyl-1,7-naphthyridine-4-carboxylic Acid]
- LipE (DHODH): 3.39
- fold more soluble than brequinar (Thermodynamic solubility; PBS at pH 7.4): 2.5–3 ×
- solubility thermodynamic (Thermodynamic solubility): 1050 µg/mL (≈ 3100 µM)

Structure (SMILES): Cc1c(-c2ccc(-c3ccccc3)cc2)nc2ccncc2c1C(=O)O [compound 47, 2-([1,1′-Biphenyl]-4-yl)-3-methyl-1,6-naphthyridine-4-carboxylic Acid]
- LipE (DHODH): 1.39

Structure (SMILES): Cc1c(-c2ccc(-c3ccccc3)cc2)nc2cnc(C(F)(F)F)cc2c1C(=O)O [compound 48, 2-([1,1′-Biphenyl]-4-yl)-3-methyl-6-(trifluoromethyl)-1,7-naphthyridine-4-carboxylic Acid]
- LipE (DHODH): 2.63

Structure (SMILES): Cc1c(-c2ccc(-c3cccnc3Cl)cc2)nc2cnccc2c1C(=O)O [compound 49, 2-(4-(2-Chloropyridin-3-yl)phenyl)-3-methyl-1,7-naphthyridine-4-carboxylic Acid]
- LipE (DHODH): 3.46

Structure (SMILES): Cc1ccc(-c2ccc(-c3nc4cnccc4c(C(=O)O)c3C)cc2)c(Cl)n1 [compound 50, 2-(4-(2-Chloro-6-methylpyridin-3-yl)phenyl)-3-methyl-1,7-naphthyridine-4-carboxylic Acid]
- LipE (DHODH): 1.65

Structure (SMILES): Cc1c(-c2ccc(-c3cccnc3Cl)cc2)nc2cnc(C(F)(F)F)cc2c1C(=O)O [compound 51, 2-(4-(2-Chloropyridin-3-yl)phenyl)-3-methyl-6-(trifluoromethyl)-1.7-naphthyridine-4-carboxylic Acid]
- LipE (DHODH): 2.69

Structure (SMILES): Cc1c(-c2ccc(-c3ccccc3F)cc2)nc2cnc(C(F)(F)F)cc2c1C(=O)O [compound 52, 2-(2’-Fluoro-[1,1’-biphenyl]-4-yl)-3-methyl-6-(trifluoromethyl)-1.7-naphthyridine-4-carboxylic Acid]
- LipE (DHODH): 2.74
- fold more potent than brequinar in the MTT assay (HCT-116): at least 2 fold
- fold more potent than brequinar in the MTT assay (MIA PaCa-2): at least 2 fold
